In the supplement of paper PMC6045584:
± gives the standard deviation of the averaged measurements.

Experiments:
YM155 [1] = compound: T1, COCC[n+]1c2c(n(Cc3cnccn3)c1C)C(=O)c1ccccc1C2=O [YM155]; assay: area under dose-response curve of surviving fraction (unscaled, Aref=0) (surviving fraction x log10(nM)); higher = more resistant; conditions: exposure time: 5 days; dose range 0.5-1000 nM
How it was run: (§1)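 Each tumour cell line was screened three times in 384-well plates, receiving eight inhibitor concentrations from 0.5 to 1000 nM for five days. CellTiter-Glo luminescence gave viability, normalised to DMSO-only wells. Using the drc R package, surviving fractions were fitted with 3-parameter logistic dose-response curves, and the unscaled activity area over log10 dose (Aref = 0) was taken as the area under the curve.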

OSI-906 [2] = compound: T2, C[C@]1(O)C[C@@H](c2nc(-c3ccc4ccc(-c5ccccc5)nc4c3)c3c(N)nccn32)C1 [OSI-906]; assay: as above; conditions: exposure time: 5 days; dose range 0.5-1000 nM
How it was run: as §1

[3] = compound: CC(=O)c1c(C)c2cnc(Nc3ccc(N4CCNCC4)cn3)nc2n(C2CCCC2)c1=O; assay: as above; conditions: exposure time: 5 days; dose range 0.5-1000 nM
How it was run: as §1

GEFITINIB [4] = compound: T3, COc1cc2ncnc(Nc3ccc(F)c(Cl)c3)c2cc1OCCCN1CCOCC1 [GEFITINIB]; assay: as above; conditions: exposure time: 5 days; dose range 0.5-1000 nM
How it was run: as §1

CAMPTOTHECIN [5] = compound: T4, CC[C@@]1(O)C(=O)OCc2c1cc1n(c2=O)Cc2cc3ccccc3nc2-1 [CAMPTOTHECIN]; assay: as above; conditions: exposure time: 5 days; dose range 0.5-1000 nM
How it was run: as §1

PACLITAXEL [6] = compound: T5, CC(=O)O[C@H]1C(=O)[C@@]2(C)[C@H]([C@H](OC(=O)c3ccccc3)[C@]3(O)C[C@H](OC(=O)[C@H](O)[C@@H](NC(=O)c4ccccc4)c4ccccc4)C(C)=C1C3(C)C)[C@]1(OC(C)=O)CO[C@@H]1C[C@@H]2O [PACLITAXEL]; assay: as above; conditions: exposure time: 5 days; dose range 0.5-1000 nM
How it was run: as §1

[7] = compound: CC(=O)NCC(=O)N1[C@@H]2CC[C@H]1c1ccc(Nc3ncc(C(F)(F)F)c(NC4CCC4)n3)cc12; assay: as above; conditions: exposure time: 5 days; dose range 0.5-1000 nM
How it was run: as §1

CARBOPLATIN [8] = compound: T6, O=C(O)C1(C(=O)O)CCC1.[NH2-].[NH2-].[Pt+2] [CARBOPLATIN]; assay: as above; conditions: exposure time: 5 days; dose range 0.5-1000 nM
How it was run: as §1

CELECOXIB [9] = compound: T7, Cc1ccc(-c2cc(C(F)(F)F)nn2-c2ccc(S(N)(=O)=O)cc2)cc1 [CELECOXIB]; assay: as above; conditions: exposure time: 5 days; dose range 0.5-1000 nM
How it was run: as §1

YM155 [10] = compound: T1, YM155; assay: surviving fraction relative to DMSO-only wells; higher = less growth inhibition; conditions: exposure time: 5 days
How it was run: (§2)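 Inhibitors at 0.5, 1, 5, 10, 50, 100, 500 and 1000 nM were applied continuously for five days to tumour cell lines seeded in log phase at 250–500 cells per well in 384-well plates 24 hours earlier. Viability was measured by CellTiter-Glo luminescence and expressed as surviving fraction relative to the median of DMSO-only wells. Luminescence was taken after 10 minutes at room temperature.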

OSI-906 [11] = compound: T2, OSI-906; assay: as above; conditions: exposure time: 5 days
How it was run: as §2

[12] = compound: CC(=O)c1c(C)c2cnc(Nc3ccc(N4CCNCC4)cn3)nc2n(C2CCCC2)c1=O; assay: as above; conditions: exposure time: 5 days
How it was run: as §2

GEFITINIB [13] = compound: T3, GEFITINIB; assay: as above; conditions: exposure time: 5 days
How it was run: as §2

CAMPTOTHECIN [14] = compound: T4, CAMPTOTHECIN; assay: as above; conditions: exposure time: 5 days
How it was run: as §2

PACLITAXEL [15] = compound: T5, PACLITAXEL; assay: as above; conditions: exposure time: 5 days
How it was run: as §2

[16] = compound: CC(=O)NCC(=O)N1[C@@H]2CC[C@H]1c1ccc(Nc3ncc(C(F)(F)F)c(NC4CCC4)n3)cc12; assay: as above; conditions: exposure time: 5 days
How it was run: as §2

CARBOPLATIN [17] = compound: T6, CARBOPLATIN; assay: as above; conditions: exposure time: 5 days
How it was run: as §2

CELECOXIB [18] = compound: T7, CELECOXIB; assay: as above; conditions: exposure time: 5 days
How it was run: as §2

In the case of C33A CERVIX, the “area under dose-response curve” value (YM155 [1]) is reported as 0.324, the “area under dose-response curve” value (OSI-906 [2]) is reported as 3.42 and the “area under dose-response curve” value [3] is reported as 3.67. For the same test system, the “area under dose-response curve” value (GEFITINIB [4]) was 2.98, the “area under dose-response curve” value (CAMPTOTHECIN [5]) was 1.24 and the “area under dose-response curve” value (PACLITAXEL [6]) was 0.98. The “area under dose-response curve” value [7] was 2.24, the “area under dose-response curve” value (CARBOPLATIN [8]) was 4.12 and the “area under dose-response curve” value (CELECOXIB [9]) was 3.25. It also gave a surviving fraction (YM155 [10]; 0.5 nM) of 0.816 ± 0.047, a surviving fraction (YM155 [10]; 1 nM) of 0.325 ± 0.029 and a surviving fraction (YM155 [10]; 5 nM) of 0.057 ± 0.032. The surviving fraction (YM155 [10]; 10 nM) was 0.031 ± 0.0062, the surviving fraction (YM155 [10]; 50 nM) was 0.0213 ± 0.00058 and the surviving fraction (YM155 [10]; 100 nM) was 0.0393 ± 0.041. For the same test system, the surviving fraction (YM155 [10]; 500 nM) was 0.0193 ± 0.0076, the surviving fraction (YM155 [10]; 1000 nM) was 0.0353 ± 0.015 and the surviving fraction (OSI-906 [11]; 0.5 nM) was 0.981 ± 0.054. The surviving fraction (OSI-906 [11]; 1 nM) was 0.945 ± 0.052, the surviving fraction (OSI-906 [11]; 5 nM) was 1.08 ± 0.011 and the surviving fraction (OSI-906 [11]; 10 nM) was 1.1 ± 0.053. It also gave a surviving fraction (OSI-906 [11]; 50 nM) of 1.02 ± 0.13, a surviving fraction (OSI-906 [11]; 100 nM) of 1.05 ± 0.14 and a surviving fraction (OSI-906 [11]; 500 nM) of 1.06 ± 0.096. It also gave a surviving fraction (OSI-906 [11]; 1000 nM) of 0.985 ± 0.011, a surviving fraction ([12]; 0.5 nM) of 0.978 ± 0.065 and a surviving fraction ([12]; 1 nM) of 1.05 ± 0.066. The surviving fraction ([12]; 5 nM) was 1.14 ± 0.13, the surviving fraction ([12]; 10 nM) was 1.08 ± 0.067 and the surviving fraction ([12]; 50 nM) was 1.15 ± 0.13. For the same test system, the surviving fraction ([12]; 100 nM) was 1.2 ± 0.11, the surviving fraction ([12]; 500 nM) was 1.01 ± 0.082 and the surviving fraction ([12]; 1000 nM) was 1.16 ± 0.12. For the same test system, the surviving fraction (GEFITINIB [13]; 0.5 nM) was 0.925 ± 0.067, the surviving fraction (GEFITINIB [13]; 1 nM) was 1.01 ± 0.063 and the surviving fraction (GEFITINIB [13]; 5 nM) was 1.01 ± 0.018. It also gave a surviving fraction (GEFITINIB [13]; 10 nM) of 0.969 ± 0.049, a surviving fraction (GEFITINIB [13]; 50 nM) of 0.91 ± 0.052 and a surviving fraction (GEFITINIB [13]; 100 nM) of 0.973 ± 0.02. For the same test system, the surviving fraction (GEFITINIB [13]; 500 nM) was 0.551 ± 0.054, the surviving fraction (GEFITINIB [13]; 1000 nM) was 0.457 ± 0.058 and the surviving fraction (CAMPTOTHECIN [14]; 0.5 nM) was 0.863 ± 0.019. For the same test system, the surviving fraction (CAMPTOTHECIN [14]; 1 nM) was 0.868 ± 0.074, the surviving fraction (CAMPTOTHECIN [14]; 5 nM) was 0.654 ± 0.1 and the surviving fraction (CAMPTOTHECIN [14]; 10 nM) was 0.423 ± 0.024. For the same test system, the surviving fraction (CAMPTOTHECIN [14]; 50 nM) was 0.126 ± 0.03, the surviving fraction (CAMPTOTHECIN [14]; 100 nM) was 0.0787 ± 0.0078 and the surviving fraction (CAMPTOTHECIN [14]; 500 nM) was 0.0317 ± 0.0032. The surviving fraction (CAMPTOTHECIN [14]; 1000 nM) was 0.0383 ± 0.016, the surviving fraction (PACLITAXEL [15]; 0.5 nM) was 0.855 ± 0.042 and the surviving fraction (PACLITAXEL [15]; 1 nM) was 0.842 ± 0.054. For the same test system, the surviving fraction (PACLITAXEL [15]; 5 nM) was 0.328 ± 0.015, the surviving fraction (PACLITAXEL [15]; 10 nM) was 0.179 ± 0.031 and the surviving fraction (PACLITAXEL [15]; 50 nM) was 0.11 ± 0.0091. The surviving fraction (PACLITAXEL [15]; 100 nM) was 0.173 ± 0.047, the surviving fraction (PACLITAXEL [15]; 500 nM) was 0.089 ± 0.021 and the surviving fraction (PACLITAXEL [15]; 1000 nM) was 0.0977 ± 0.025. For the same test system, the surviving fraction ([16]; 0.5 nM) was 0.77 ± 0.079, the surviving fraction ([16]; 1 nM) was 0.707 ± 0.032 and the surviving fraction ([16]; 5 nM) was 0.895 ± 0.062. For the same test system, the surviving fraction ([16]; 10 nM) was 0.953 ± 0.069, the surviving fraction ([16]; 50 nM) was 0.665 ± 0.087 and the surviving fraction ([16]; 100 nM) was 0.515 ± 0.03. The surviving fraction ([16]; 500 nM) was 0.396 ± 0.011, the surviving fraction ([16]; 1000 nM) was 0.351 ± 0.012 and the surviving fraction (CARBOPLATIN [17]; 0.5 nM) was 1.14 ± 0.063. For the same test system, the surviving fraction (CARBOPLATIN [17]; 1 nM) was 1.14 ± 0.085, the surviving fraction (CARBOPLATIN [17]; 5 nM) was 1.19 ± 0.082 and the surviving fraction (CARBOPLATIN [17]; 10 nM) was 1.43 ± 0.17. It also gave a surviving fraction (CARBOPLATIN [17]; 50 nM) of 1.21 ± 0.066, a surviving fraction (CARBOPLATIN [17]; 100 nM) of 1.43 ± 0.13 and a surviving fraction (CARBOPLATIN [17]; 500 nM) of 1.15 ± 0.051. For the same test system, the surviving fraction (CARBOPLATIN [17]; 1000 nM) was 1.31 ± 0.024, the surviving fraction (CELECOXIB [18]; 0.5 nM) was 0.897 ± 0.037 and the surviving fraction (CELECOXIB [18]; 1 nM) was 0.951 ± 0.11. For the same test system, the surviving fraction (CELECOXIB [18]; 5 nM) was 1.01 ± 0.083, the surviving fraction (CELECOXIB [18]; 10 nM) was 0.954 ± 0.037 and the surviving fraction (CELECOXIB [18]; 50 nM) was 0.932 ± 0.11. It also gave a surviving fraction (CELECOXIB [18]; 100 nM) of 1.04 ± 0.088, a surviving fraction (CELECOXIB [18]; 500 nM) of 0.981 ± 0.13 and a surviving fraction (CELECOXIB [18]; 1000 nM) of 1.11 ± 0.035.
